Data published in ChEMBL document CHEMBL1154731, “Theoretical and structural analysis of the active site of the transcriptional regulators LasR and TraR, using molecular docking methodology for identifying potential analogues of acyl homoserine lactones (AHLs) with anti-quorum sensing activity” (Eur J Med Chem, 2010).

Columns and labels:
[1] = target: T1, Transcriptional activator protein LasR (Pseudomonas aeruginosa (strain ATCC 15692 / PAO1 / 1C / PRS 101 / LMG12228), UniProt P25084); assay: Inhibition of Pseudomonas aeruginosa LasR
T1 sequence (P25084 whole entry): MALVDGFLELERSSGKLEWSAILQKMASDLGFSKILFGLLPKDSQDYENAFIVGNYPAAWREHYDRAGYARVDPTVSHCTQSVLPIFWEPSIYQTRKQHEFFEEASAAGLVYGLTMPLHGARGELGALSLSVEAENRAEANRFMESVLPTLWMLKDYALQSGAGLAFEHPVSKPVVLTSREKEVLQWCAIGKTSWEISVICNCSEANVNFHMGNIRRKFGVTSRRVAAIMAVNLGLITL

[2] = target: T2, Transcriptional activator protein TraR (Agrobacterium tumefaciens, UniProt P33905); assay: Inhibition of Agrobacterium tumefaciens TraR
T2 sequence (P33905 whole entry): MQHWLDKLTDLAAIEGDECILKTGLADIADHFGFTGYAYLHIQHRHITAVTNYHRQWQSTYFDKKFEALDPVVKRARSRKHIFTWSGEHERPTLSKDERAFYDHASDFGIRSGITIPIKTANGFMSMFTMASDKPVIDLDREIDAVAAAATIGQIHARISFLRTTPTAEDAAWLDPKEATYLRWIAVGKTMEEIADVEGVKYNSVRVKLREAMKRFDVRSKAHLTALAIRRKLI

## O=C(CC(=O)N[C@H]1CCOC1=O)Cc1ccccc1
[1]
  IC50: 53.6 µM
[2]
  IC50: 0.5 µM

## O=C(CCCc1c[nH]c2ccccc12)N[C@H]1CCOC1=O
[1]
  IC50: 14.8 µM
[2]
  IC50: 1.1 µM

## O=C(CC1C=CCC1)N[C@H]1CCOC1=O (stereo partly drawn)
[1]
  IC50: 33.1 µM
[2]
  IC50: 1 µM

## CCCCCCC(=O)N[C@H]1CCOC1=O
[1]
  IC50: 51.5 µM
[2]
  IC50: 0.13 µM
